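Following 48 hours of exposure in 96-well plates, responses at five concentrations were used to interpolate endpoints linearly. GI50 marks 50% less growth.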 Active and inactive are the calls of the source. No stated cut-off is given here; in the data, active = GI50 up to about 1.1 µM and inactive = higher.
Legend:
Assay in all cases: NCI-60 cell line screen, 48 h
SF-268 = test system: SF-268
SK-MEL-2 = test system: SK-MEL-2
HOP-92 = test system: HOP-92
LOX IMVI = test system: LOX IMVI
SNB-19 = test system: SNB-19
NCI/ADR-RES = test system: NCI/ADR-RES
UO-31 = test system: UO-31
NCI-H522 = test system: NCI-H522
OVCAR-8 = test system: OVCAR-8
M14 = test system: M14
HCC 2998 = test system: HCC 2998
HT-29 = test system: HT-29
MDA-MB-231 = test system: MDA-MB-231
NCI-H23 = test system: NCI-H23
COLO 205 = test system: COLO 205
SK-MEL-28 = test system: SK-MEL-28
RPMI-8226 = test system: RPMI-8226
Malme-3M = test system: Malme-3M
SF-539 = test system: SF-539
UACC-257 = test system: UACC-257

Measured: GI50

CN(C)CCCNc1ncnc2[nH]cnc12
inactive: SF-268 > 100 µM | SK-MEL-2 > 100 µM | HOP-92 38.1 µM | LOX IMVI > 100 µM | SNB-19 > 100 µM | NCI/ADR-RES > 100 µM | UO-31 > 100 µM | NCI-H522 > 100 µM | OVCAR-8 > 100 µM | M14 > 100 µM | HCC 2998 > 100 µM | HT-29 > 100 µM | MDA-MB-231 > 100 µM | NCI-H23 > 100 µM | COLO 205 > 100 µM | SK-MEL-28 > 100 µM | RPMI-8226 > 100 µM | Malme-3M > 100 µM

Cn1c(-c2cccs2)cc(-c2ccccc2)c1-c1cccs1
inactive: SF-268 > 100 µM | SK-MEL-2 25.5 µM | HOP-92 > 100 µM | LOX IMVI > 100 µM | SNB-19 12.2 µM | NCI/ADR-RES > 100 µM | UO-31 > 100 µM | NCI-H522 50.8 µM | OVCAR-8 65.2 µM | M14 56.6 µM | SF-539 43.8 µM | HCC 2998 > 100 µM | HT-29 63 µM | MDA-MB-231 > 100 µM | NCI-H23 4.75 µM | COLO 205 19.1 µM | UACC-257 48.2 µM | SK-MEL-28 > 100 µM | RPMI-8226 > 100 µM

CC1(C)C/C(=N/O)c2c(nc3ccc4ccccc4c3c2-c2ccc(Cl)cc2)C1
inactive: SF-268 14.2 µM | SK-MEL-2 43.7 µM | HOP-92 18.3 µM | LOX IMVI 13.7 µM | SNB-19 35 µM | NCI/ADR-RES 17.5 µM | UO-31 16.8 µM | NCI-H522 15.3 µM | OVCAR-8 12.5 µM | M14 33.5 µM | SF-539 16.6 µM | HCC 2998 21.6 µM | HT-29 15.4 µM | MDA-MB-231 11.6 µM | NCI-H23 22 µM | COLO 205 18.2 µM | UACC-257 25.4 µM | SK-MEL-28 31.3 µM | RPMI-8226 27.2 µM

CC(C)=CC(=O)c1[nH]c2ccccc2c1CC(=O)NCCc1c[nH]cn1
inactive: SF-268 > 100 µM | SK-MEL-2 > 100 µM | HOP-92 > 100 µM | LOX IMVI > 100 µM | SNB-19 > 100 µM | NCI/ADR-RES > 100 µM | UO-31 > 100 µM | NCI-H522 > 100 µM | OVCAR-8 > 100 µM | M14 > 100 µM | SF-539 > 100 µM | HCC 2998 > 100 µM | HT-29 > 100 µM | MDA-MB-231 > 100 µM | NCI-H23 > 100 µM | COLO 205 > 100 µM | UACC-257 > 100 µM | SK-MEL-28 > 100 µM | Malme-3M > 100 µM

CC1OC(OC2C(OC(=O)[C@]34CCC(C)(C)C[C@H]3C3=CC[C@@H]5[C@@]6(C)CC[C@H](OC7OC(C(=O)O)C(O)C(O)C7O)C(C)(C)[C@@H]6CC[C@@]5(C)[C@]3(C)C[C@H]4O)OCC(O)C2O)C(O)C(O)C1OC1OCC(OC2OCC(O)C(O)C2O)C(O)C1O (some centres not stated)
inactive: SF-268 12.6 µM | SK-MEL-2 2.96 µM | HOP-92 6.01 µM | LOX IMVI 11.9 µM | SNB-19 5.51 µM | NCI/ADR-RES 11.1 µM | UO-31 2.13 µM | NCI-H522 4.94 µM | OVCAR-8 15.9 µM | M14 3.52 µM | HCC 2998 1.53 µM | HT-29 3.4 µM | MDA-MB-231 3.45 µM | NCI-H23 2.14 µM | COLO 205 1.89 µM | UACC-257 8.63 µM | SK-MEL-28 3.44 µM | RPMI-8226 10.7 µM | Malme-3M 11.4 µM

CC1CCCN(CC(O)CN2CCCc3ccccc32)C1 (configuration not stated)
inactive: SF-268 > 100 µM | SK-MEL-2 > 100 µM | LOX IMVI > 100 µM | SNB-19 > 100 µM | NCI/ADR-RES > 100 µM | UO-31 76 µM | NCI-H522 64.4 µM | OVCAR-8 > 100 µM | M14 > 100 µM | HT-29 41.6 µM | MDA-MB-231 > 100 µM | NCI-H23 > 100 µM | COLO 205 > 100 µM | UACC-257 > 100 µM | SK-MEL-28 > 100 µM | RPMI-8226 > 100 µM | Malme-3M > 100 µM

Cn1c(=O)c2c(nc(NCCCCl)n2CC(=O)NCCCCl)n(C)c1=O
inactive: SF-268 > 100 µM | SK-MEL-2 > 100 µM | HOP-92 > 100 µM | LOX IMVI > 100 µM | SNB-19 > 100 µM | NCI/ADR-RES > 100 µM | UO-31 > 100 µM | NCI-H522 > 100 µM | OVCAR-8 > 100 µM | M14 > 100 µM | HCC 2998 > 100 µM | HT-29 > 100 µM | MDA-MB-231 > 100 µM | NCI-H23 > 100 µM | COLO 205 > 100 µM | UACC-257 > 100 µM | SK-MEL-28 > 100 µM | RPMI-8226 > 100 µM

COC(=O)C1=C(C(=O)OC)C(OO)(c2ccccc2)OC1=O (configuration not stated)
inactive: SK-MEL-2 55.2 µM | HOP-92 > 100 µM | LOX IMVI 31.3 µM | SNB-19 > 100 µM | NCI/ADR-RES > 100 µM | UO-31 > 100 µM | NCI-H522 60.7 µM | OVCAR-8 > 100 µM | M14 > 100 µM | SF-539 33.3 µM | HCC 2998 > 100 µM | HT-29 35.9 µM | MDA-MB-231 58.2 µM | NCI-H23 > 100 µM | COLO 205 > 100 µM | UACC-257 > 100 µM | SK-MEL-28 > 100 µM | Malme-3M > 100 µM

CC1CCC(O)(C(C)(C(=O)O)c2ccccc2)CC1 (configuration not stated)
inactive: SF-268 > 100 µM | SK-MEL-2 > 100 µM | HOP-92 83.9 µM | LOX IMVI > 100 µM | SNB-19 48.3 µM | NCI/ADR-RES > 100 µM | UO-31 > 100 µM | NCI-H522 > 100 µM | OVCAR-8 > 100 µM | M14 49 µM | HT-29 > 100 µM | MDA-MB-231 > 100 µM | NCI-H23 > 100 µM | UACC-257 > 100 µM | SK-MEL-28 > 100 µM | Malme-3M 63.4 µM

Cn1c(=O)n2n(c1=O)C([S+]([O-])c1ccccc1)C2 (configuration not stated)
inactive: SF-268 > 100 µM | SK-MEL-2 > 100 µM | HOP-92 > 100 µM | LOX IMVI 38.9 µM | SNB-19 > 100 µM | NCI/ADR-RES > 100 µM | UO-31 > 100 µM | NCI-H522 30.8 µM | OVCAR-8 > 100 µM | M14 > 100 µM | SF-539 > 100 µM | HCC 2998 > 100 µM | HT-29 > 100 µM | MDA-MB-231 > 100 µM | NCI-H23 > 100 µM | COLO 205 > 100 µM | UACC-257 > 100 µM | SK-MEL-28 > 100 µM | RPMI-8226 > 100 µM

CC(C)(C)OC(=O)NCCCCC(NC(=O)OCc1ccccc1)C(N)=O (configuration not stated)
inactive: SF-268 > 100 µM | SK-MEL-2 > 100 µM | LOX IMVI > 100 µM | SNB-19 > 100 µM | NCI/ADR-RES > 100 µM | UO-31 > 100 µM | NCI-H522 > 100 µM | OVCAR-8 > 100 µM | M14 > 100 µM | SF-539 > 100 µM | HCC 2998 > 100 µM | HT-29 > 100 µM | MDA-MB-231 > 100 µM | NCI-H23 > 100 µM | COLO 205 > 100 µM | UACC-257 > 100 µM | SK-MEL-28 > 100 µM | RPMI-8226 > 100 µM | Malme-3M > 100 µM

COc1ccc(C2(O)C(S(=O)(=O)c3ccc(C)cc3)=Cc3ccc(OC)cc32)cc1 (configuration not stated)
inactive: SF-268 31.6 µM | SK-MEL-2 43.2 µM | LOX IMVI > 100 µM | SNB-19 43.7 µM | NCI/ADR-RES > 100 µM | NCI-H522 39.9 µM | OVCAR-8 44.3 µM | SF-539 43.5 µM | HCC 2998 > 100 µM | HT-29 > 100 µM | MDA-MB-231 > 100 µM | NCI-H23 > 100 µM | COLO 205 > 100 µM | UACC-257 > 100 µM | SK-MEL-28 32.7 µM | RPMI-8226 > 100 µM

NC(=O)C(=CNC(=S)Nc1cccc(C(F)(F)F)c1)C(N)=O
inactive: SF-268 > 100 µM | SK-MEL-2 > 100 µM | HOP-92 > 100 µM | LOX IMVI > 100 µM | SNB-19 > 100 µM | NCI/ADR-RES > 100 µM | UO-31 > 100 µM | OVCAR-8 > 100 µM | M14 > 100 µM | SF-539 > 100 µM | HCC 2998 > 100 µM | HT-29 > 100 µM | MDA-MB-231 > 100 µM | NCI-H23 > 100 µM | COLO 205 > 100 µM | UACC-257 > 100 µM | SK-MEL-28 > 100 µM | RPMI-8226 > 100 µM

OCC1C(OCc2ccccc2)C(OCc2ccccc2)C(OCc2ccccc2)CN1Cc1ccccc1 (configuration not stated)
inactive: SF-268 65.5 µM | HOP-92 9.64 µM | LOX IMVI 31.3 µM | SNB-19 96.8 µM | NCI/ADR-RES 26.7 µM | UO-31 18.4 µM | NCI-H522 27.4 µM | OVCAR-8 29.9 µM | M14 37.2 µM | SF-539 73.5 µM | HCC 2998 28.2 µM | HT-29 9.62 µM | MDA-MB-231 21.3 µM | NCI-H23 15.4 µM | COLO 205 14.3 µM | UACC-257 19.6 µM | SK-MEL-28 88.9 µM | Malme-3M 27.9 µM

C=CCOn1c(C=C)nc2c(C)cccc21
inactive: SF-268 3.89 µM | SK-MEL-2 2.21 µM | HOP-92 8.32 µM | LOX IMVI 2.9 µM | SNB-19 5.2 µM | NCI/ADR-RES 3.12 µM | UO-31 2.43 µM | NCI-H522 2.29 µM | OVCAR-8 2.85 µM | M14 3.61 µM | HCC 2998 6.08 µM | HT-29 3.36 µM | MDA-MB-231 3.83 µM | NCI-H23 7.74 µM | COLO 205 1.95 µM | UACC-257 2.99 µM | SK-MEL-28 10.6 µM | RPMI-8226 2.43 µM | Malme-3M 11.6 µM

— ChEMBL document CHEMBL1201862, “PubChem BioAssay data set” (2004)
